Values joined by “and” are separate entries in the source; they are usually repeats but may differ in a detail not shown here. Equal entries are not always repeated.

What all share (format): functional
The species entered for assay [1] is Mus musculus. Description: Dose required to protect 50% of tested mice against experimental antithrombosis.
Assay [2] is filed under the species Mus musculus. Description: Effective dose of the compound required to protect […] tested mice against experimental antithrombosis.
The species named for assay [3] is Cavia porcellus. Description: Effect on guinea pig artia (beats/min), at the a dose of 10e-9 M.
The species entered for assay [4] is Cavia porcellus. Description: Effect on guinea pig artia (beats/min), at the a dose of 10e-7 M.
The species entered for assay [5] is Cavia porcellus. In words: Effect on guinea pig artia (beats/min), at the a dose of 10e-8 M.
For assay [6], the species on record is Cavia porcellus. Description: Effect on guinea pig artia (beats/min), at the a dose of 10e-6 M.
Assay [7] is filed under the species Cavia porcellus. Description: Effect on guinea pig artia (beats/min), at the a dose of 0 M.
For assay [8], the species on record is Oryctolagus cuniculus. Description: Effect on 35 mM K+-induced contraction on rabbit aorta at a dose of 3*10e-8 mol/L.
The species named for assay [9] is Oryctolagus cuniculus. In words: Effect on 35 mM K+-induced contraction on rabbit aorta at a dose of 10e-9 mol/L.
For assay [10], the species on record is Oryctolagus cuniculus. Description: Effect on 35 mM K+-induced contraction on rabbit aorta at a dose of 10e-7 mol/L.
Assay [11] is filed under the species Oryctolagus cuniculus. Description: Effect on 35 mM K+-induced contraction on rabbit aorta at a dose of 10e-8 mol/L.
The species named for assay [12] is Oryctolagus cuniculus. In words: Effect on 35 mM K+-induced contraction on rabbit aorta at a dose of 3*10e-9 mol/L.

As to `CO/C(O)=C1\C(C)=NC(C)=C(C(=O)OCN2C(=O)c3ccccc3S2(=O)=O)C1C` (stereo not given), in the assay listed under Mus musculus [1], the ED50 is > 220 µmol/kg and > 100 mg/kg.
For the molecule `CC(=O)Oc1ccccc1C(=O)O` [ASPIRIN], the ED30 came out at 166.66 µM/kg in the assay listed under Mus musculus [2] and 30 mg/kg in the assay filed under Mus musculus [2] (Mus musculus, read-out: ED30).
On to `CCCCC1C(C(=O)OCCN2C(=O)c3ccccc3S2(=O)=O)=C(C)N=C(C)/C1=C(/O)OC` (stereo not given), for which, in the assay filed under Mus musculus [1], the ED50 was 78.4 µmol/kg and 37.3 mg/kg.
For `CCOC(=O)C1=C(C)NC(C)=C(C(=O)OC)C1c1cccc([N+](=O)[O-])c1` (stereo not given) [NITRENDIPINE], the Beats/min in the assay listed under Cavia porcellus [3] stood at 190; in the assay listed under Cavia porcellus [4] it was 179; in the assay filed under Cavia porcellus [5], 185; in the assay listed under Cavia porcellus [6], 153; in the assay listed under Cavia porcellus [7] it was 190. Further, the Control in the assay filed under Cavia porcellus [3] is given as 100%; in the assay filed under Cavia porcellus [4], 94%; in the assay listed under Cavia porcellus [5], 97.5%; in the assay filed under Cavia porcellus [6] it was 81%; in the assay listed under Cavia porcellus [7], 100%.
`COC(=O)C1=C(C)NC(C)=C(C(=O)OC)C1c1ccccc1[N+](=O)[O-]` [NIFEDIPINE]: the Inhibition is given as 88.35% in the assay listed under Oryctolagus cuniculus [8]; 18.28% in the assay listed under Oryctolagus cuniculus [9]; 100% in the assay listed under Oryctolagus cuniculus [10]; 73.66% in the assay filed under Oryctolagus cuniculus [11]; 41.73% in the assay filed under Oryctolagus cuniculus [12]. Also, the ED50 in the assay filed under Mus musculus [1] was 6.93 µmol/kg and 2.4 mg/kg.
For the molecule `OCCN(CCO)c1nc(N2CCCCC2)c2nc(N(CCO)CCO)nc(N3CCCCC3)c2n1` [DIPYRIDAMOLE], in the assay filed under Mus musculus [1], the ED50 was 143 µmol/kg and 72 mg/kg.
Same read-out and setting: then `CO/C(O)=C1\C(C)=NC(C)=C(C(=O)OCCN2C(=O)c3ccccc3S2(=O)=O)C1C` (stereo not given), with 138 µmol/kg and 59.9 mg/kg.
Same read-out and setting: then `CCO/C(O)=C1\C(C)=NC(C)=C(C(=O)OCN2C(=O)c3ccccc3S2(=O)=O)C1C` (stereo not given), with 134 µmol/kg and 58.3 mg/kg; and `Clc1ccccc1CN1CCc2sccc2C1` [TICLOPIDINE], with 152 µmol/kg and 40 mg/kg.
Consider `CC1=NC(C)=C(C(=O)OCCNC(=O)c2ccccc2O)C(C)/C1=C(\O)OCCN1C(=O)c2ccccc2S1(=O)=O` (stereo not given), for which the ED50 in the assay listed under Mus musculus [1] is 51.4 µmol/kg and 30 mg/kg.

Broadly, the ED50 is the dose that gives a 50% effect, or the effect in half of the subjects. Low values mean an effect at a small dose, high ones a need for a large dose. Broadly, the Inhibition is the percentage by which the read-out fell short of the control. Low values mean a weak effect, high ones a strong effect.

These data come from ChEMBL document CHEMBL1123971, “Synthesis, platelet aggregation inhibitory activity, and in vivo antithrombotic activity of new 1,4-dihydropyridines” (J Med Chem, 1988).
